Values of other authors as cited in patent EP1656939A1 (Pooger Properties Limited, priority 2004, dated 2006).

Assays:
[1] = system: Ehrlich-carcinoma- and sarcoma-180-bearing mice; details: photoperiod alternated between LD 14:10 and DL 10:14 every 3 days
[2] = system: chemically induced mammary tumors

Compound: COc1ccc2[nH]cc(CCNC(C)=O)c2c1 [melatonin, N-acetyl-5-methoxytryptamine]
- half-life of endogenous melatonin in the serum (endogenous melatonin, serum): 30 to 50 min
- cleared in a single passage through the liver (single passage through the liver): Approximately 90%
- reduction of survival and acceleration of tumor growth [1]: reversed
- promotion of chemically induced mammary tumors ([2]; in vivo): inhibits
- antitumor activity ([2]; rodents): significant antitumor activity
